We go through six compounds from publication PMC6943638, “Lectin PLL3, a Novel Monomeric Member of the Seven-Bladed β-Propeller Lectin Family” (Molecules, 2019).

Read-outs that look alike come from different tables or passages of the source.

In assay [1] the target is T1, PLL3 (Photorhabdus laumondii subsp. laumondii, UniProt Q7N8I7). Put plainly: Hemagglutination inhibition assay (PLL3 with erythrocytes of blood group O). The settings on record: PLL3 50 μM; for minimal inhibitory concentration (MIC) of hemagglutination: erythrocytes of blood group O 10% (v/v); for inhibition of hemagglutination: blood group O erythrocytes, saccharide 100 to 0.1 mM. Format: cell-based. The protocol: For the hemagglutination inhibition assay, the PLL3 was mixed with serially diluted saccharides (L-fucose, αMeFuc, D-galactose, D-glucose, and 3-O-methyl-D-glucose) dissolved in PBS buffer, and mixtures were incubated for 15 min at room temperature. Subsequently, erythrocytes of blood group O were added into the mixture with following incubation for 15 min. The final concentration was 50 μM for the PLL3 and 10% (v/v) for erythrocytes. Concentrations of L-fucose and αMeFuc ranged from 50 to 0.05 mM. Concentrations of D-galactose, D-glucose, and 3-O-methyl-D-glucose ranged from 100 to 0.1 mM. Each sample was observed under the optical microscope (Olympus IX81 with camera DP72; 200x magnification; SW CellSens Dimension, Olympus corporation, Tokyo, Japan).

Assay [2] concerns the target T1, PLL3. Put plainly: Isothermal titration calorimetry (ITC). The format is binding. The protocol: ITC experiments were carried out using an AutoITC200 calorimeter (Malvern, UK) at 25 °C. The purified lectin was dialyzed against 20 mM Tris/HCl, 150 mM NaCl, pH 7.5 buffer before measurements. Individual ligands (L-fucose, αMeFuc, D-galactose, D-glucose, 3-O-methyl-D-glucose, and decavalent fucosylated glycoclusters 4a and 4b) were dissolved in the same buffer. PLL3 (100 μM) in the cell was titrated by the successive addition (2.0 μL) of the ligand in the syringe (20 mM for monosaccharides, 1 mM for multivalent fucosides). Experiments with monosaccharides were performed at stirring 750 rpm with a reference power of 10 μcal s^−1. Experiments with multivalent fucosides were performed at stirring 500 rpm with a reference power of 6 μcal s^−1. Titrations were carried out in three independent measurements for each ligand. Blank measurements were subtracted from collected data. For multivalent fucosides, two blank measurements were performed: titration of the buffer into the cell with PLL3 and titration of the buffer into the buffer. For monosaccharides, the additional blank measurement, the titration of a given ligand into the cell with buffer, was performed. The data were evaluated in software MicroCal PEAQ-ITC Analysis Software (Malvern, UK) by using the global fit method. Integrated heat effects were analyzed by nonlinear regression.
For orientation: In ITC the heat of successive injections is recorded.

Assay [3] concerns the target T1, PLL3. Description: SPR inhibition test on immobilized OMeDis. The format is binding. The protocol:
(§1) SPR experiments were performed in a BIAcore T200 instrument (GE Healthcare, UK) using a four-channel sensor chip CM5 with a carboxymethyldextran surface layer (GE Healthcare, UK). Saccharides were immobilized on the chip surface using the procedure as described elsewhere. Immobilization was performed in the HBS buffer (10 mM HEPES, 150 mM NaCl, 0.05% Tween 20, pH 7.5) at a flow rate of 10 μL min^−1. For OMeDis immobilization, the surface of the channel was activated with N-hydroxysuccinimide/N-ethyl-N-(3-dimethylaminopropyl)carbodiimide solution (NHS/EDC) and subsequently OMeDis covalently modified by linker (-O-(p-C6H4)-OCH2CH2NH2) in HBS was injected. The final response of immobilized OMeDis was 136 RU. Non-reacted groups were blocked by 1 M ethanolamine/HCl (pH 8.5). A corresponding blank channel was prepared the same way, omitting the ligand injection. […] Biotinylated α-L-fucoside was injected onto this channel to the final response of 63 RU. A corresponding blank channel was prepared the same way without the injection of biotinylated fucoside.
SPR inhibition tests were carried out on a channel with immobilized OMeDis using the same buffer and flow rate values as those for the binding studies. The final concentration of the lectin was 20 μM. PLL3 was mixed with serially diluted saccharides (50–0.05 mM for L-fucose; 12.5–0.013 mM for αMeFuc; 200–0.2 mM for 3-O-methyl-D-glucose; and 400–0.4 mM for D-glucose and D-galactose) and injected onto the chip. The lectin sample without ligand was used as a control with 0% inhibition effect. The response of blank channel as well as the response of corresponding saccharides were subtracted from the response of lectin bound to the OMeDis surface at equilibrium. A final response was plotted against the concentration of inhibitor in order to determine IC50 (concentration of inhibitor resulting in 50% inhibition of binding).

Assay [4] has as its target T1, PLL3. Put plainly: Glycan array screening with DyLight 488-labeled PLL3. The format is binding. The settings on record: PLL3 200 μg mL^-1, hexaplicates. From the text:
Purified PLL3 protein was labeled with DyLight 488 NHS Ester (Thermo Scientific, Rockford, MI, USA) according to the manual instructions of the manufacturer. The unbound dye was removed from the solution using the Zeba Spin Desalting Column (Thermo scientific). The labeled lectin was used for glycan array screening using a glycan microarray chip (Semiotik, Moscow, Russia; chip format OSPS280715; slide number 10085636) containing over 600 mammalian and bacterial glycans (all in hexaplicates). The glycan microarray chip was incubated in 1.0 mL of PBS buffer supplemented with 0.1% (v/v) Tween 20 and placed in a humid chamber for 15 min (37 °C, 40 rpm). Then, the buffer was replaced by 0.5 mL PLL3 (200 μg mL^−1) diluted in PBS buffer with 0.1% Tween 20 and 1% (w/v) bovine serum albumin (Serva, Germany). After incubation (90 min, 37 °C, 40 rpm), the chip was washed by decreasing concentrations of PBS with 0.1% Tween 20, followed by multiple immersions in ultrapure water. Subsequently, the chip was dried by air blow. Fluorescence was read with a scanner InnoScan 1100 AL (Innopsys, Carbonne, France) with a 488 nm laser at 20 °C. The data were analyzed with the software Mapix 8.2.2 and an online glycan chip converter (Semiotik, https://rakitko.shinyapps.io/semiotik). The relative fluorescent response of PLL3 binding was calculated from hexaplicates of each glycan immobilized onto the chip. Only glycans with a response three or more times higher than trehalose and concurrently with a signal-to-noise ratio higher than two were considered as significant binders.

Assay [5] concerns the target T1, PLL3. Put plainly: Surface plasmon resonance, apparent KD on immobilized glycans. Format: binding. The settings on record: SPR, immobilized glycan, PLL3 100 to 0.195 μM, steady-state. The protocol:
as §1
(§2) Between individual injections, the channels were regenerated by 50 mM NaOH for 30 s. The experiment was run at a flow rate of 30 μL min^−1 and a contact time of 120 s. The concentration of PLL3 ranged from 100 μM to 0.195 μM. An apparent KD was calculated in BIAevaluation software using the steady-state approach.

Assay [6] deals with PLL3. Described as above. Format: binding, Photorhabdus laumondii subsp. laumondii. The settings on record: PLL3 compared with PLL2 and PHL of ref 17. The protocol:
as §1, §2

Setting [7] is: stoichiometry fixed to 3, 25 °C, read-out: KD.
[8] abbreviates: stoichiometry fixed to 4, 25 °C, read-out: KD.
[9] abbreviates: stoichiometry fixed to 5, 25 °C, read-out: KD.
Setting [10] is: stoichiometry fixed to 6, 25 °C, read-out: KD.
Setting [11] is: stoichiometry fixed to 7, 25 °C, read-out: KD.

T1 sequence (Q7N8I7 entry or part of it): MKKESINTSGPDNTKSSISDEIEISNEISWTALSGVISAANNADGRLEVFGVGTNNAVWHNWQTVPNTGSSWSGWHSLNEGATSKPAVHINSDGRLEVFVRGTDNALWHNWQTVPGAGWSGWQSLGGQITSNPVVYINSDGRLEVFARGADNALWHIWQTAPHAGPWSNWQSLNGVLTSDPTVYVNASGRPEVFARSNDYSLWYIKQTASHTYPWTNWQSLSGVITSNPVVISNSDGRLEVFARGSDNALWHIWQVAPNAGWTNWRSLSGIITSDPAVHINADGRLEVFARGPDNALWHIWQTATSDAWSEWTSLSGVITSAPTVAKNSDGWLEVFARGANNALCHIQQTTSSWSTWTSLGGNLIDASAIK

By IC50 is commonly meant the point on the concentration scale where inhibition reaches its midpoint. As to `C[C@H](O)[C@@H](O)[C@@H](O)[C@H](O)C=O` [L-fucose], on PLL3 [1], the “minimal inhibitory concentration (MIC) of hemagglutination” value worked out at 1560 µM. For the same compound, the Kd is 3.4 ± 0.12 mM at PLL3 [2] (setting [7]); 3.3 ± 0.12 mM at PLL3 [2] (setting [8]); 3.2 ± 0.11 mM at PLL3 [2] (setting [9]); 3.1 ± 0.1 mM on PLL3 [2] (setting [10]); 3 ± 0.09 mM at PLL3 [2] (setting [11]). Inhibition on PLL3 [3] was half-maximal at 2.51 ± 0.09 mM (IC50).
For the compound `OC[C@H]1OC(O)[C@H](O)[C@@H](O)[C@@H]1O` (stereo partly drawn) [D-glucose], the inhibition of hemagglutination entry at PLL3 [1] is on record as “did not inhibit hemagglutination”. The Kd on PLL3 [2] (setting [7]) turned out to be 3.7 ± 0.08 mM; at PLL3 [2] (setting [8]) it was 3.6 ± 0.08 mM; on PLL3 [2] (setting [9]), 3.4 ± 0.08 mM; at PLL3 [2] (setting [10]), 3.3 ± 0.07 mM; on PLL3 [2] (setting [11]), 3.1 ± 0.07 mM. Moreover, the inhibitory effect entry against PLL3 [3] (PLL3 20 μM, immobilized OMeDis, highest concentration used 400 mM) was “did not exhibit any inhibitory effect”.
In the case of `CO[C@@H]1O[C@@H](C)[C@@H](O)[C@@H](O)[C@@H]1O` [methyl α-L-fucopyranoside], the “minimal inhibitory concentration (MIC) of hemagglutination” value on PLL3 [1] turned out to be 780 µM. Also, the Kd was 0.7 ± 0.02 mM at PLL3 [2] (setting [7]); 0.7 ± 0.03 mM at PLL3 [2] (setting [8]); 0.6 ± 0.03 mM at PLL3 [2] (setting [9]); 0.6 ± 0.03 mM on PLL3 [2] (setting [10]); 0.6 ± 0.03 mM at PLL3 [2] (setting [11]). Besides, at PLL3 [3] (inhibition of interaction between PLL3 (20 μM) and immobilized OMeDis, read-out: IC50), the IC50 stood at 1.04 ± 0.05 mM.
On to `CO[C@@H]([C@H](O)[C@H](O)CO)[C@@H](O)C=O` [3-O-methyl-D-glucose], for which the inhibition of hemagglutination entry at PLL3 [1] is “did not inhibit hemagglutination”. The Kd at PLL3 [2] (setting [7]) is 11.3 ± 1.55 mM; on PLL3 [2] (setting [8]) it was 11.1 ± 1.5 mM; at PLL3 [2] (setting [9]) it was 10.9 ± 1.5 mM; on PLL3 [2] (setting [10]), 10.7 ± 1.5 mM; on PLL3 [2] (setting [11]), 10.4 ± 1.45 mM; at PLL3 [2] (text summary over stoichiometry fixed 3 to 7, read-out: KD values), over 10.4 mM. Moreover, on PLL3 [3], the IC50 came to 26.4 ± 2.84 mM.
For α-L-fucoside, on PLL3 [4], the “glycan array response relative to trehalose (negative control)” value is recorded as about 20 fold. Also, on PLL3 [5], the Kd was 0.322 ± 0.086 mM.
For the compound “3,6-O-Me2-Glcβ1-4(2,3-O-Me2)Rhaα [OMeDis]”, the Kd on PLL3 [5] stood at 0.607 ± 0.046 mM. Moreover, the “interaction with immobilized OMeDis, fold weaker than for PLL2 and PHL” value in the assay with PLL3 [6] is recorded as 10^5 fold.
